The term IC50 denotes the point on the concentration scale where inhibition reaches its midpoint.

The values that follow come from patent US9718790B2, “Triazine derivative and pharmaceutical composition having an analgesic activity comprising the same” (SHIONOGI & CO., LTD., priority 2010, dated 2017).

The target of the first test is human P2X3 receptor (Homo sapiens (Human), UniProt P56373). The test is described as follows: Evaluation of human P2X3 receptor inhibitory activity (Fluo-3 calcium fluorescence, FDSS 3000, ATP stimulation).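 Further: stimulus was 50 nM ATP with fluorescence followed for 3 min, and the response per well was peak post-ATP fluorescence divided by the reading at measurement start.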 The note with it: C6BU-1 cells stably expressing human P2X3 receptor. The test is classed as cell-based.
Sequence of human P2X3 receptor (P56373 whole entry): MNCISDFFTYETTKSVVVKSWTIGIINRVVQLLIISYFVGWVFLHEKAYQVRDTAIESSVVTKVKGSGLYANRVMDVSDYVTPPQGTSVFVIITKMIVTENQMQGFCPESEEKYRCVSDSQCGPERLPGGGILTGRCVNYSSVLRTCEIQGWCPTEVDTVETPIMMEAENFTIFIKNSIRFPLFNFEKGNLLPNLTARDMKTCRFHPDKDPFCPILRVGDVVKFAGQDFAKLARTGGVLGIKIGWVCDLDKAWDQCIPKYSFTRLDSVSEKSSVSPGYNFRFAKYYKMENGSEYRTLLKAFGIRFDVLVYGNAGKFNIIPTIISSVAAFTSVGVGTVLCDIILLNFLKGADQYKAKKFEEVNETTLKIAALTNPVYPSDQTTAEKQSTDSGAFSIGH
For `Cc1ccc(Cn2c(=O)n(CCC(=O)O)c(=O)[nH]/c2=N\c2ccc(CC(C)C)c(C)c2)cc1` [Compound I-1224], the IC50 was found to be 54 nM.

As for `Cc1ccc(Oc2ccc(/N=c3\[nH]c(=O)n([C@H](C)[C@H](C)C(=O)O)c(=O)n3Cc3ccc(Cl)cc3)cc2)cn1` [Compound I-1389], the IC50 was found to be 12 nM.

As for `COC(=O)[C@@H](C)Cn1c(=O)[nH]/c(=N\c2ccc3nc(C)ccc3c2)n(Cc2ccc(C)cc2)c1=O` [Compound I-1275], the concentration for half-maximal inhibition (IC50) amounted to 6 nM.

As to `CCCc1ccc(/N=c2\[nH]c(=O)n(C[C@H](C)C(=O)O)c(=O)n2Cc2ccc(Cl)cc2)cc1` [Compound I-0627], the 50% inhibitory concentration (IC50) came to 91 nM.

For `COC(=O)[C@@H](C)Cn1c(=O)[nH]/c(=N\c2ccc(NC(C)=O)cc2)n(Cc2ccc(C)cc2)c1=O` [Compound I-1415], the 50% inhibitory concentration (IC50) came to 532 nM.

For the molecule `Cc1cc(/N=c2\[nH]c(=O)n(C[C@@H](C)C(=O)O)c(=O)n2CC2CCCCC2)ccc1OC(C)C` [Compound I-0647], the IC50 was found to be 316 nM.

Take `COC(=O)[C@@H](C)Cn1c(=O)[nH]/c(=N\c2cccc(OC)c2)n(Cc2ccc(C)cc2)c1=O` [Compound I-1201]: the IC50 stood at 788 nM.

On to `Cc1ccc(Cn2c(=O)n(CCC(=O)O)c(=O)[nH]/c2=N\c2ccc(OC3CCC3)c(C)c2)cc1` [Compound I-1406], for which the concentration for half-maximal inhibition (IC50) is 64 nM.

With `CCn1c(=O)[nH]/c(=N\c2ccc(Oc3cnc(C(=O)OC)cn3)cc2)n(Cc2ccc(Cl)cc2)c1=O` [Compound I-2212], the IC50 was 2 nM.

On to `CCOc1ccc(/N=c2\[nH]c(=O)n(C[C@H](C)C(=O)OC)c(=O)n2Cc2ccc(C)cc2)cc1Cl` [Compound I-0678], for which the concentration for half-maximal inhibition (IC50) worked out at 8 nM.

`CCn1c(=O)[nH]/c(=N\c2ccc(Oc3nccc(O)n3)cc2)n(Cc2ccc(Cl)cc2)c1=O` [Compound I-2108]: the IC50 was determined as 26 nM.

For `CCn1c(=O)[nH]/c(=N\c2ccc(Oc3ccnc(N)c3)cc2)n(Cc2ccc(Cl)cc2)c1=O` [Compound I-2166], the IC50 was 10 nM.

For the molecule `CC(C)Oc1ccc(/N=c2\[nH]c(=O)n(CCNCCO)c(=O)n2Cc2ccc(Cl)cc2)cc1F` [Compound I-2122], the IC50 was determined as 93 nM.

As for `Cc1ccc(Cn2c(=O)n(CC(C)(C)C(=O)O)c(=O)[nH]/c2=N\c2ccc(CC(C)C)c(Cl)c2)cc1` [Compound I-1462], the IC50 was determined as 3 nM.

Turning to `Cc1ccc(Cn2c(=O)n(C[C@H](C)C(=O)O)c(=O)[nH]/c2=N\c2ccc(OC3CCCC3)nc2)cc1` [Compound I-1226], the IC50 was found to be 122 nM.

`CNC(=O)Cn1c(=O)[nH]/c(=N\c2ccc(Oc3ccnc(O)c3)cc2)n(Cc2ccc(Cl)cc2)c1=O` [Compound I-1978]: the 50% inhibitory concentration (IC50) worked out at 5 nM.

Turning to `COC(=O)[C@@H](C)Cn1c(=O)[nH]/c(=N\c2ccc(/C=C/C3CC3)cc2)n(Cc2ccc(C)cc2)c1=O` [Compound I-1193], the IC50 stood at 40 nM.

Turning to `Cc1ccc(Cn2c(=O)n(C[C@H](C)C(=O)O)c(=O)[nH]/c2=N\c2ccc3nc(C)ccc3c2)cc1` [Compound I-1278], the IC50 amounted to 33 nM.

`Cc1cc(/N=c2\[nH]c(=O)n(Cc3cccn(CCO)c3=O)c(=O)n2Cc2ccc(Cl)cc2)ccc1OC(C)C` [Compound I-0713]: the concentration for half-maximal inhibition (IC50) is 16 nM.

On to `O=C(O)CCn1c(=O)[nH]/c(=N\c2ccc(Oc3ccncc3)cc2)n(Cc2ccc(Cl)cc2)c1=O` [Compound I-1207], for which the 50% inhibitory concentration (IC50) came to 15 nM.

Regarding `CC(C)Oc1ccc(/N=c2\[nH]c(=O)n(CCN(CCO)C(=O)OC(C)(C)C)c(=O)n2Cc2ccc(Cl)cc2)cc1F` [Compound I-2109], the IC50 is 11 nM.

The test is the same for the next values; noted with them: C6BU-1 cells stably expressing human P2X3 receptor, Fluo-3 fluorescence, FDSS 3000.
As to `CCc1nc2ccc(/N=c3\[nH]c(=O)n(CCCO)c(=O)n3Cc3ccc(Cl)cc3)cc2s1` [Compound I-1622], the 50% inhibitory concentration (IC50) was determined as 4 nM.

Take `C[C@H](Cn1c(=O)[nH]/c(=N\c2ccc(OCC3CC3)cc2)n(Cc2ccc(Cl)cc2)c1=O)C(=O)O` [Compound I-1037]: the half-maximal inhibitory concentration (IC50) was found to be 93 nM.

Consider `CCC[C@@H](C)Oc1ccc(/N=c2\[nH]c(=O)n(CCC(=O)OCC)c(=O)n2Cc2ccc(C)cc2)cc1` [Compound I-1053], for which the concentration for half-maximal inhibition (IC50) came to 79 nM.

Consider `CCn1c(=O)[nH]/c(=N\c2ccc(Oc3cccc(C(=O)OC)c3)cc2)n(Cc2ccc(Cl)cc2)c1=O` [Compound I-1880], for which the concentration for half-maximal inhibition (IC50) turned out to be 15 nM.

For `COC(=O)[C@@H](C)Cn1c(=O)[nH]/c(=N\c2ccc(CC(C)C)c(C)c2)n(Cc2ccc(C)cc2)c1=O` [Compound I-1043], the IC50 worked out at 10 nM.

`Cc1ccc(Cn2c(=O)n([C@@H](C)[C@@H](C)C(=O)O)c(=O)[nH]/c2=N\c2ccc(OCC3CC3)c(Cl)c2)cc1` [Compound I-0975]: the IC50 was 43 nM.

For `Cc1cc(/N=c2\[nH]c(=O)n(C3CN(CC(=O)O)C3)c(=O)n2Cc2ccc(Cl)cc2)ccc1OC(C)C` [Compound I-1742], the IC50 turned out to be 135 nM.

Turning to `C[C@@H](C(=O)O)[C@H](C)n1c(=O)[nH]/c(=N\c2ccc3ncccc3c2)n(Cc2ccc(Cl)cc2)c1=O` [Compound I-1834], the IC50 came out at 325 nM.

For `CCc1nc2ccc(/N=c3\[nH]c(=O)n(CCC(=O)NS(C)(=O)=O)c(=O)n3Cc3ccc(Cl)cc3)cc2s1` [Compound I-1875], the IC50 was found to be 13 nM.

`COC(=O)[C@@H](O)Cn1c(=O)[nH]/c(=N\c2ccc(OC(C)C)c(C)c2)n(Cc2ccc(Cl)cc2)c1=O` [Compound I-0994, (S)-1-(4-chlorobenzyl)-6-(3-mehyl-4-isopropoxyphenylimino)-3-(2-methoxycarbonyl-2-hydroxyethyl)-1,3,5-triazinane-2,4-dion]: the IC50 turned out to be 20 nM.

In the case of `Cc1cc(/N=c2\[nH]c(=O)n(C[C@H](C)C(=O)O)c(=O)n2Cc2ccc(C(C)C)cc2)ccc1OC(C)C` [Compound I-1017], the IC50 worked out at 550 nM.

Turning to `O=c1[nH]/c(=N\c2ccc(Oc3ccnc(O)c3)cc2)n(Cc2ccc(Cl)cc2)c(=O)n1CCO` [Compound I-1712], the IC50 amounted to 4 nM.

The same test, now with this note: human P2X3 receptor, Test Example 1.
Turning to `CCOC(=O)CCn1c(=O)[nH]/c(=N\c2ccc(OCC)c(Cl)c2)n(Cc2ccc(C)cc2)c1=O` [Compound I-0867], the concentration for half-maximal inhibition (IC50) came out at 6 nM.

Regarding `CCOC(=O)CCn1c(=O)[nH]/c(=N\c2ccc(OC(C)C)c(Cl)c2)n(Cc2ccc(C)cc2)c1=O` [Compound I-0866, 6-(3-chloro-4-isopropoxyphenylamino)-3-(2,3-ethoxycarbonylethyl)-1-(4-methylbenzyl)-1,3,5-triazinane-2,4-dion], the IC50 was 2 nM.

With `CCn1c(=O)[nH]/c(=N\c2ccc(Oc3ccc(C(=O)O)cn3)cc2)n(Cc2ccc(Cl)cc2)c1=O` [Compound I-2320], the IC50 was determined as 6 nM.

On to `CCOC(=O)Cn1c(=O)[nH]/c(=N\c2ccc(Oc3ccon3)c(F)c2)n(Cc2ccc(Cl)cc2)c1=O` [Compound I-2578], for which the half-maximal inhibitory concentration (IC50) is 6 nM.

For the molecule `Cc1ccc(Cn2c(=O)n(C[C@H](C)C(=O)O)c(=O)[nH]/c2=N\c2ccc(OCC3CC3)cc2)cc1` [Compound I-0838], the half-maximal inhibitory concentration (IC50) was 33 nM.

Consider `O=c1[nH]/c(=N\c2ccc(Oc3ccon3)cc2)n(Cc2ccc(F)cc2)c(=O)n1CCCO` [Compound I-2397], for which the concentration for half-maximal inhibition (IC50) was determined as 39 nM.

Turning to `CC(C)Oc1ccc(/N=c2\[nH]c(=O)n(CC(C)(C)CC(=O)O)c(=O)n2Cc2ccc(Cl)cc2)cc1F` [Compound I-0845], the IC50 turned out to be 24 nM.

As for `CCn1c(=O)[nH]/c(=N\c2ccc(Oc3ccn[nH]3)cc2)n(Cc2ccc(Cl)cc2)c1=O` [Compound I-2455], the IC50 came out at 63 nM.

For the molecule `COC(=O)CCn1c(=O)[nH]/c(=N\c2ccc(Oc3cccc(C#N)n3)cc2)n(Cc2ccc(C)cc2)c1=O` [Compound I-2633], the concentration for half-maximal inhibition (IC50) came out at 2 nM.

For the molecule `O=c1[nH]/c(=N\c2ccc(Oc3cccc(F)n3)cc2)n(Cc2ccc(Cl)cc2)c(=O)n1CCO` [Compound I-2516], the 50% inhibitory concentration (IC50) came out at 9 nM.

For the molecule `NC(=O)CCn1c(=O)[nH]/c(=N\c2ccc(Oc3cccc(F)n3)cc2)n(Cc2ccc(Cl)cc2)c1=O` [Compound I-2654], the IC50 worked out at 9 nM.

For the molecule `CCOC(=O)CNc1cc(Oc2ccc(/N=c3\[nH]c(=O)n(CC)c(=O)n3Cc3ccc(Cl)cc3)cc2)ccn1` [Compound I-2549], the IC50 stood at 12 nM.

Consider `COC(=O)CCn1c(=O)[nH]/c(=N\c2ccc(Oc3cccc(C(N)=O)n3)cc2)n(Cc2ccc(Cl)cc2)c1=O` [Compound I-2684], for which the IC50 is 2 nM.

With `CCn1c(=O)[nH]/c(=N\c2ccc(Oc3cccc(C#N)n3)cc2)n(Cc2ccc(F)cc2)c1=O` [Compound I-2466], the IC50 was 16 nM.

Take `CCn1c(=O)[nH]/c(=N\c2ccc(Oc3ccsn3)cc2)n(C[C@H]2CC[C@H](C)CC2)c1=O` [Compound I-2350]: the IC50 amounted to 2 nM.

As for `O=C(O)Cn1c(=O)[nH]/c(=N\c2ccc(Oc3cccc(F)n3)cc2)n(Cc2ccc(Cl)cc2)c1=O` [Compound I-2564], the half-maximal inhibitory concentration (IC50) is 269 nM.

For `Cc1ccc(Cn2c(=O)n(CCC(=O)O)c(=O)[nH]/c2=N\c2ccc(Oc3ncccn3)cc2)cc1` [Compound I-2558], the IC50 turned out to be 22 nM.

With `CCn1c(=O)[nH]/c(=N\c2ccc(Oc3nc(C)c(C(=O)O)s3)cc2)n(C[C@H]2CC[C@H](C)CC2)c1=O` [Compound I-2346], the half-inhibitory concentration (IC50) was determined as 4 nM.

As to `Cc1nsc(Oc2ccc(/N=c3\[nH]c(=O)n(CC(C)(CO)CO)c(=O)n3Cc3ccc(Cl)cc3)cc2)n1` [Compound I-2576], the half-maximal inhibitory concentration (IC50) worked out at 3 nM.

With `CCCOc1ccc(/N=c2\[nH]c(=O)n(C[C@H](CC)C(=O)OC)c(=O)n2Cc2ccc(Cl)cc2)cc1` [Compound I-0888], the IC50 was found to be 30 nM.

On to `CCn1c(=O)[nH]/c(=N\c2ccc(Oc3ccnc(C(=O)OC)c3)cc2)n(Cc2ccc(F)cc2)c1=O` [Compound I-2359], for which the 50% inhibitory concentration (IC50) is 26 nM.

As to `CCn1c(=O)[nH]/c(=N\c2ccc(Oc3ccc(C(=O)O)cn3)cc2)n(Cc2ccc(C)cc2)c1=O` [Compound I-2400], the IC50 was 6 nM.

Take `CCn1c(=O)[nH]/c(=N\c2ccc(Oc3cncc(C(=O)OC)n3)cc2)n(Cc2ccc(C)cc2)c1=O` [Compound I-2467]: the half-maximal inhibitory concentration (IC50) turned out to be 7 nM.

As for `O=c1[nH]/c(=N\c2ccc(Oc3ccon3)cc2)n(Cc2ccc(Cl)cc2)c(=O)n1CC(O)CO` (stereo not shown) [Compound I-2370], the IC50 was found to be 11 nM.

Take `COC(=O)c1cccc(Oc2ccc(/N=c3\[nH]c(=O)n(C)c(=O)n3Cc3ccc(C)cc3)cc2)n1` [Compound I-2266]: the half-inhibitory concentration (IC50) was found to be 44 nM.
